Key:
[1] = target: ligand binding domain of human FXR (Homo sapiens (Human), UniProt Q96RI1); assay: FXR ligand binding assay (LanthaScreen TR-FRET, SRC2-2 peptide recruitment); details: for pEC50: -log EC50, concentration required to produce 50% activation; for Emax: extent of activation relative to GW4064, read-out: % Efficacy
[2] = target: human Farnesoid X receptor ligand-binding domain/Gal4 DNA binding domain chimera (Homo sapiens (Human), UniProt Q96RI1); assay: Cell-based assay of FXR activation (FXR-UAS-bla HEK 293T beta-lactamase reporter); details: cellular FXR beta-lactamase reporter assay; for Emax: HEK-293T, extent of activation relative to GW4064, read-out: % Efficacy; for EC50: FXR-UAS-bla HEK 293T cells, 16 h, pEC50 = -log EC50
Sequence of human Farnesoid X receptor ligand-binding domain/Gal4 DNA binding domain chimera (Q96RI1 262-486, change not shown): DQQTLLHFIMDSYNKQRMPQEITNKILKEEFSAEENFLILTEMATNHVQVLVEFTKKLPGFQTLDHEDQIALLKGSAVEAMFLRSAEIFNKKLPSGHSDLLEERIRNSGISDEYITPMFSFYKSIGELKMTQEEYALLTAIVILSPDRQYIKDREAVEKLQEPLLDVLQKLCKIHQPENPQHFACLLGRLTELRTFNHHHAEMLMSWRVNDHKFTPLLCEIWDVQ
Sequence of human Farnesoid X receptor ligand-binding domain/Gal4 DNA binding domain chimera (P04386 1-147 partner): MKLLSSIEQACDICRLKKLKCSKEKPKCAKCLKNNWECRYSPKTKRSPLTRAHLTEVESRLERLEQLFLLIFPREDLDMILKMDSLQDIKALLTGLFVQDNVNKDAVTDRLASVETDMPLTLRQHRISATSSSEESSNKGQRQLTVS
How it was run: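 HEK 293T cells stably expressing a Gal4-fused human FXR LBD and a UAS-driven beta-lactamase reporter were incubated with serially diluted compounds for 16 h at 37 °C in phenol red-free DMEM with 2% charcoal-stripped FBS. CCF4 FRET read-out: excitation 409 nm, emission 447 nm. pEC50 comes from a 3-parameter logistic fit, and efficacy is given as % of GW4064.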

DSS colitis mice = assay: Restoration of epithelial barrier integrity in DSS colitis; type: in vivo, C57Bl/6 mice; details: 30 mg/kg once daily oral gavage
Procedure: Colonic histopathology was assessed in mice administered dextran sodium sulfate (DSS) to assess the ability of selected example compounds to restore epithelial barrier integrity in a model of colitis presenting with epithelial erosions. Approximately seven-week old, female, C57Bl/6 mice were purchased from Envigo (Livermore, Calif.), were housed 6 per cage and acclimated for at least 2 weeks before study initiation. Animals were fed standard laboratory rodent chow Harlan Teklad Global 2018 (Maddison, Wis.). Mice had ad libitum access to food and water for the duration of the study and were maintained in a temperature and humidity controlled room on a standard light/dark cycle of 6 AM to 6 PM. DSS was prepared at 1.5% (MW 35-50 kDa, Lot # M7191, MP Biomedical) in filtered drinking water and provided to the mice from Day 0 to Day 7 (n=12/group). The DSS water was replaced once during the study on Day 3 or 4 with fresh DSS water. One cohort of mice (n=6) was provided drinking water without DSS and severed as the non-diseased control group. Vehicle (1% methylcellulose in water, 10 mL/kg) or varying doses of test compound were administered once daily by oral gavage beginning on Day −3 through Day 8. FXR agonist compounds of the invention, FXR1 and FXR2, were tested at doses of 0.3 and 1 mg/kg and compared to known FXR agonist obeticholic acid (OCA) administered at 30 mg/kg. Body weight and food and water intake were measured daily from the initiation of DSS administration. Disease activity index (DAI) scoring was performed on Day 9 prior to necropsy. Stool consistency, blood in stool, incidence of rectal prolapse, and body condition was assessed according to the scoring system in Table 25 and summed to a total DAI score:
Following DAI scoring on Day 9 and under isoflurane anesthesia mice were exsanguinated via cardiac puncture and euthanized by thoracotomy, followed by cervical dislocation. The entire colon (from the cecum to the anus) was removed, and the length recorded. The luminal contents were removed by flushing with ice-cold PBS using a blunt needle attached to a syringe and the colon was blotted dry and weighed. For each treatment group, half of the distal colon samples were prepared for cytokine analysis and half were prepared for histological evaluation. For cytokine measurement, the distal ⅓ of the colon was excised and weighed, placed into 5 mL Eppendorf tubes, frozen on dry ice and stored at −80° C., until analysis. Inflammatory cytokines were measured in colon tissue using a V-Plex custom kit (Proinflammatory Panel 1 (mouse), Mesoscale Technology). For histology, the colon was rolled by grasping the distal end and rotating to generate a spiral with a third dimension. The colon was then placed in a tissue cassette, and into a jar of 10/o buffered formalin phosphate at room temperature for at least 24 hours to ensure tissue fixation, at which point the formalin was replaced with 70% ethanol. […] Three levels of the distal colon were assigned a colitis score and the average colitis score for each animal was derived by summing the colitis scores for the three levels of colon evaluated and dividing the sum by three. The average colitis score for each treatment group was derived by summing the colitis scores for all levels of colon evaluated in the group and dividing the sum by the total number of levels of colon evaluated for that group. The presence or absence of mucosal defects (erosions or ulcerations) was also recorded for each level of colon. […]

Sequence of ligand binding domain of human FXR (Q96RI1 262-486): as the sequence (Q96RI1 262-486, change not shown) above

Row | SMILES | pEC50 [1] | Emax [1] [%] | Emax [2] [%] | EC50 [2] [nM] | DAI score (DSS colitis mice; Day 9, vs DSS vehicle) | body weight (DSS-induced reduction) (DSS colitis mice; vs DSS vehicle) | epithelial erosions (mucosal defects) observed histologically (DSS colitis mice; vs DSS vehicle) | histology colitis score (DSS colitis mice; vs DSS vehicle) | inflammatory cytokines IL-6, IL-1β, TNFα, IFNγ and KC/Gro in the colon (DSS colitis mice; vs DSS vehicle)
1 | O=C(NS(=O)(=O)C1CCOC1)c1ccc(N2C(=O)[C@@H]3C[C@H]2C[C@H]3OCc2c(-c3c(Cl)cccc3Cl)noc2C2CC2)cc1 (stereo partly drawn) [Compound I-340, 4-((1S,4R,5R)-5-((5-cyclopropyl-3-(2,6-dichlorophenyl)isoxazol-4-yl)methoxy)-3-oxo-2-azabicyclo[2.2.1]heptan-2-yl)-N-((tetrahydrofuran-3-yl)sulfonyl)benzamide] | 8.8 | 182 | 110 | 7.94 |  |  |  |  | 
2 | O=C(NS(=O)(=O)CC1CCOC1)c1ccc(N2C(=O)[C@@H]3C[C@H]2C[C@H]3OCc2c(-c3c(Cl)cccc3Cl)noc2C2CC2)cc1 (stereo partly drawn) [Compound I-341, 4-((1S,4R,5R)-5-((5-cyclopropyl-3-(2,6-dichlorophenyl)isoxazol-4-yl)methoxy)-3-oxo-2-azabicyclo[2.2.1]heptan-2-yl)-N-(((tetrahydrofuran-3-yl)methyl)sulfonyl)benzamide] | 8.7 | 164 | 109 | 10 |  |  |  |  | 
3 | O=C(NS(=O)(=O)CCC1CCOC1)c1ccc(N2C(=O)[C@@H]3C[C@H]2C[C@H]3OCc2c(-c3c(Cl)cccc3Cl)noc2C2CC2)cc1 (stereo partly drawn) [Compound I-342, 4-((1S,4R,5R)-5-((5-cyclopropyl-3-(2,6-dichlorophenyl)isoxazol-4-yl)methoxy)-3-oxo-2-azabicyclo[2.2.1]heptan-2-yl)-N-((2-(tetrahydrofuran-3-yl)ethyl)sulfonyl)benzamide] | 8.6 | 139 | 125 | 31.6 |  |  |  |  | 
4 | O=C(NS(=O)(=O)C1CCCC1)c1ccc(N2C(=O)[C@@H]3C[C@H]2C[C@H]3OCc2c(-c3c(Cl)cccc3Cl)noc2C2CC2)cc1 [Compound I-343, N-(cyclopentylsulfonyl)-4-((1S,4R,5R)-5-((5-cyclopropyl-3-(2,6-dichlorophenyl)isoxazol-4-yl)methoxy)-3-oxo-2-azabicyclo[2.2.1]heptan-2-yl)benzamide] | 9 | 176 | 105 | 0.1 |  |  |  |  | 
5 | O=C(NS(=O)(=O)[C@@H]1CCC[C@H]1O)c1ccc(N2C(=O)[C@@H]3C[C@H]2C[C@H]3OCc2c(-c3c(Cl)cccc3Cl)noc2C2CC2)cc1 [Compound I-344, 4-[(1S,4R,5R)-5-{[5-cyclopropyl-3-(2,6-dichlorophenyl)-1,2-oxazol-4-yl]methoxy}-3-oxo-2-azabicyclo[2.2.1]heptan-2-yl]-N-{[(1R,2R)-2-hydroxycyclopentyl]sulfonyl}benzamide] | 8.4 | 203 | 132 | 1.58 |  |  |  |  | 
6 | NS(=O)(=O)[C@@H]1CCC[C@H]1OC(=O)c1ccc(N2C(=O)[C@@H]3C[C@H]2C[C@H]3OCc2c(-c3c(Cl)cccc3Cl)noc2C2CC2)cc1 [Compound I-345, (1R,2R)-2-sulfamoylcyclopentyl 4-[(1S,4R,5R)-5-{[5-cyclopropyl-3-(2,6-dichlorophenyl)-1,2-oxazol-4-yl]methoxy}-3-oxo-2-azabicyclo[2.2.1]heptan-2-yl]benzoate] | 8.6 | 203 | 121 | 3.98 |  |  |  |  | 
7 | O=C(NS(=O)(=O)[C@@H]1CCC[C@H]1O)c1ccc(N2C(=O)[C@@H]3C[C@H]2C[C@H]3OCc2c(-c3c(Cl)cccc3Cl)noc2C2CC2)cc1F [Compound I-346, 4-[(1S,4R,5R)-5-{[5-cyclopropyl-3-(2,6-dichlorophenyl)-1,2-oxazol-4-yl]methoxy}-3-oxo-2-azabicyclo[2.2.1]heptan-2-yl]-2-fluoro-N-{[(1R,2R)-2-hydroxycyclopentyl]sulfonyl}benzamide] | 8.2 | 188 | 133 | 0.794 |  |  |  |  | 
8 | NS(=O)(=O)[C@@H]1CCC[C@H]1OC(=O)c1ccc(N2C(=O)[C@@H]3C[C@H]2C[C@H]3OCc2c(-c3c(Cl)cccc3Cl)noc2C2CC2)cc1F [Compound I-347, (1R,2R)-2-sulfamoylcyclopentyl 4-[(1S,4R,5R)-5-{[5-cyclopropyl-3-(2,6-dichlorophenyl)-1,2-oxazol-4-yl]methoxy}-3-oxo-2-azabicyclo[2.2.1]heptan-2-yl]-2-fluorobenzoate] | 8.5 | 203 | 135 | 1 |  |  |  |  | 
9 | O=C(O)CNC(=O)c1ccc(N2C(=O)[C@@H]3C[C@H]2C[C@H]3OCc2c(-c3c(Cl)cccc3Cl)noc2C2CC2)cc1 [Compound I-358, 2-({4-[(1S,4R,5R)-5-{[5-cyclopropyl-3-(2,6-dichlorophenyl)-1,2-oxazol-4-yl]methoxy}-3-oxo-2-azabicyclo[2.2.1]heptan-2-yl]phenyl}formamido)acetic Acid] | 8 | 155 | 124 | 631 |  |  |  |  | 
10 | O=C(NCCS(=O)(=O)O)c1ccc(N2C(=O)[C@@H]3C[C@H]2C[C@H]3OCc2c(-c3c(Cl)cccc3Cl)noc2C2CC2)cc1 [Compound I-359, 2-({4-[(1S,4R,5R)-5-{[5-cyclopropyl-3-(2,6-dichlorophenyl)-1,2-oxazol-4-yl]methoxy}-3-oxo-2-azabicyclo[2.2.1]heptan-2-yl]phenyl}formamido)ethane-1-sulfonic Acid] | 8.4 | 148 | 126 | 398 |  |  |  |  | 
11 | C[C@@H]1[C@@H]2C[C@@H](C[C@H]2OCc2c(-c3c(Cl)cccc3Cl)noc2C2CC2)N1c1ccc(C(=O)O)cc1 [Compound I-360, 4-[(1S,3R,4S,5R)-5-[[5-cyclopropyl-3-(2,6-dichlorophenyl)-1,2-oxazol-4-yl]methoxy]-3-methyl-2-azabicyclo[2.2.1]heptan-2-yl]benzoic acid] | 8.6 | 117 | 102 | 0.794 |  |  |  |  | 
12 | CC[C@H]1[C@@H](O)[C@@H]2[C@H](CC[C@]3(C)[C@@H]([C@H](C)CCC(=O)O)CC[C@@H]23)[C@@]2(C)CC[C@@H](O)C[C@@H]12 [OCA, obeticholic acid] |  |  |  |  | did not significantly affect body weight nor DAI score | did not significantly affect body weight | did not reduce the number of epithelial erosions | did not significantly affect histology colitis score | only significantly reduced the levels of IL-1β, TNFα and KC/Gro

From patent US10793568B2, “Hormone receptor modulators for treating metabolic conditions and disorders” (ARDELYX, INC., priority 2016, dated 2020)
